Reference: the supplement of paper PMC10627819

Experiments:
Conditions in all cases: main component drawn
B. subtilis 168 [1] = assay: fitness (endpoint OD595 vs no drug) (fraction); higher = more growth
In short: (§1)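 Background-subtracted growth curves were the basis for fitness, taken as the optical density at entry into stationary phase over the robust mean of no-drug control wells. A cap of 1 was applied. The curves came from OD595 readings every 30 min for 14 h at 37 °C, in 384-well plates seeded at OD595 0.01 with 30 µl, or 55 µl for S. pneumoniae.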

S. pneumoniae D39V [2] = assay: as above
In short: as §1

B. subtilis 168 [3] = assay: Bliss interaction score (quartile over a dose matrix) (fitness difference); higher = more antagonism (negative = synergy)
In short: (§2)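 The Bliss score takes observed fitness and subtracts the expected fitness, calculated as a product of single-drug fitness values. Those single-drug values were inferred from the combination data. Fitness is OD595 at entry into stationary phase divided by the plate's robust no-drug mean, capped at 1, and the score is summarised by quartiles across technical, biological and donor/recipient replicates.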

S. aureus DSM 20231 = assay: as above
In short: as §2

S. aureus Newman = assay: as above
In short: as §2

S. pneumoniae D39V [4] = assay: as above
In short: as §2
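For Bliss interaction score (quartile over a dose matrix) in this document: first quartile when negative (synergy) and third quartile when positive (antagonism).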

CCCCCCCCCC(=O)N[C@@H](Cc1c[nH]c2ccccc12)C(=O)N[C@H](CC(N)=O)C(=O)N[C@@H](CC(=O)O)C(=O)N[C@@H]1C(=O)NCC(=O)N[C@@H](CCCN)C(=O)N[C@@H](CC(=O)O)C(=O)N[C@H](C)C(=O)N[C@@H](CC(=O)O)C(=O)NCC(=O)N[C@H](CO)C(=O)N[C@@H]([C@H](C)CC(=O)O)C(=O)N[C@@H](CC(=O)c2ccccc2N)C(=O)O[C@@H]1C [Daptomycin] + CCC(C)C1C(=O)NC(=C)C(=O)NC(C(=O)NC(CSCC(C(=O)N1)NC(=O)/C(=C/C)/NC(=O)C(C(C)CC)N)C(=O)NC2C(SCC(NC(=O)CNC(=O)C3CCCN3C2=O)C(=O)NC(CCCCN)C(=O)NC4C(SCC(NC(=O)CNC(=O)C(NC(=O)C(NC(=O)C(NC(=O)CNC4=O)C)CC(C)C)CCSC)C(=O)NC(CC(=O)N)C(=O)NC(CCSC)C(=O)NC(CCCCN)C(=O)NC5C(SCC6C(=O)NC(C(=O)NC(CSC(C(C(=O)N6)NC(=O)C(NC5=O)C)C)C(=O)NC(CO)C(=O)NC(C(C)CC)C(=O)NC(CC7=CN=CN7)C(=O)NC(C(C)C)C(=O)NC(=C)C(=O)NC(CCCCN)C(=O)O)CC8=CN=CN8)C)C)C)CC(C)C [Nisin]
fitness, B. subtilis 168 [1], one replicate
Conditions	first compound 0.125 µg/mL	first compound 0.25 µg/mL	first compound 0.5 µg/mL	first compound 1 µg/mL
partner 0.5 µg/mL	0.829	–	–	0.726
partner 1 µg/mL	0.873	–	–	0.676
partner 1.25 µg/mL	0.963	0.933	≥ 1	–
partner 1.6 µg/mL	0.788	0.654	0.797	–
partner 2 µg/mL	0.439	–	–	0.451
partner 2.5 µg/mL	0.234	0.593	0.601	–
partner 3.2 µg/mL	0.0337	0.0148	0.0344	–
partner 4 µg/mL	0.212	0.0372	0.0568	–
partner 5 µg/mL	0.077	0.0364	0.0223	–
partner 6.4 µg/mL	0.0443	0.039	0.026	–
partner 8 µg/mL	0.0734	0.157	0.0959	–
partner 16 µg/mL	0.0313	0.1	0.0497	–

fitness
Conditions	partner 0.4275 µg/mL	partner 0.5 µg/mL	partner 0.855 µg/mL	partner 1 µg/mL	partner 1.6 µg/mL	partner 1.71 µg/mL	partner 2 µg/mL	partner 3.2 µg/mL	partner 6.4 µg/mL
B. subtilis 168 [1], first compound 0.25 µg/mL	–	0.863	–	0.788	–	–	0.58	–	–
B. subtilis 168 [1], first compound 0.5 µg/mL	–	0.828	–	0.794	–	–	0.595	–	–
S. pneumoniae D39V [2], first compound 1 µg/mL	0.995	–	0.874	–	0.022	0.0748	–	0.0226	0.0257
S. pneumoniae D39V [2], first compound 2 µg/mL	0.98	–	0.905	–	0.0316	0.077	–	0.0221	0.013
S. pneumoniae D39V [2], first compound 4 µg/mL	0.95	–	0.796	–	0.0215	0.0872	–	0.0303	0.0068

Conditions	Bliss interaction score
B. subtilis 168 [3]	0.0676
S. aureus DSM 20231	0.209
S. aureus Newman	0.0445
S. pneumoniae D39V [4]	-0.0492
